Test results: ChEMBL document CHEMBL1201862, “PubChem BioAssay data set” (2004)
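All cell lines were grown in 96-well plates and treated with compound for 48 hours. GI50 is the concentration that inhibits growth by half.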 The source made the active and inactive calls. Rule as the data show it: active = GI50 up to about 1.1 µM and inactive = higher.

What was measured:
Assay in all cases: NCI tumour cell line growth inhibition, 48 h
SF-295 = tested on: SF-295
SF-539 = tested on: SF-539
EKVX = tested on: EKVX
SK-MEL-5 = tested on: SK-MEL-5
PC-3 = tested on: PC-3
OVCAR-5 = tested on: OVCAR-5
OVCAR-4 = tested on: OVCAR-4
SN12C = tested on: SN12C
NCI-H23 = tested on: NCI-H23
RXF 393 = tested on: RXF 393
A498 = tested on: A498
SW-620 = tested on: SW-620
BT-549 = tested on: BT-549
HCC 2998 = tested on: HCC 2998
HCT-116 = tested on: HCT-116
UACC-257 = tested on: UACC-257
Hs-578T = tested on: Hs-578T
SK-MEL-2 = tested on: SK-MEL-2

## CCCCCCCC(=O)N1C2CC3CCC2(CS1(=O)=O)C3(C)C (configuration not stated)
SF-295
  GI50: 22.2 µM (inactive)
SF-539
  GI50: 16.9 µM (inactive)
EKVX
  GI50: 37.4 µM (inactive)
SK-MEL-5
  GI50: 18.2 µM (inactive)
PC-3
  GI50: 23.7 µM (inactive)
OVCAR-5
  GI50: 44.8 µM (inactive)
OVCAR-4
  GI50: 32.7 µM (inactive)
SN12C
  GI50: 20.9 µM (inactive)
NCI-H23
  GI50: 33.3 µM (inactive)
RXF 393
  GI50: 13.3 µM (inactive)
A498
  GI50: 76.9 µM (inactive)
SW-620
  GI50: 23.3 µM (inactive)
BT-549
  GI50: 26.4 µM (inactive)
HCC 2998
  GI50: 24.7 µM (inactive)
HCT-116
  GI50: 30.1 µM (inactive)
UACC-257
  GI50: 24.5 µM (inactive)
Hs-578T
  GI50: 15.6 µM (inactive)

## CC(=O)O[C@H]1CC[C@@]2(C)C(=CC[C@@H]3[C@@H]2CC[C@](C)(c2nnc(C)o2)[C@H]3CC#N)C1
SF-295
  GI50: > 100 µM (inactive)
SF-539
  GI50: > 100 µM (inactive)
EKVX
  GI50: > 100 µM (inactive)
SK-MEL-5
  GI50: > 100 µM (inactive)
PC-3
  GI50: > 100 µM (inactive)
OVCAR-5
  GI50: > 100 µM (inactive)
OVCAR-4
  GI50: > 100 µM (inactive)
SK-MEL-2
  GI50: > 100 µM (inactive)
SN12C
  GI50: > 100 µM (inactive)
NCI-H23
  GI50: > 100 µM (inactive)
RXF 393
  GI50: > 100 µM (inactive)
A498
  GI50: > 100 µM (inactive)
SW-620
  GI50: > 100 µM (inactive)
BT-549
  GI50: > 100 µM (inactive)
HCT-116
  GI50: > 100 µM (inactive)
UACC-257
  GI50: > 100 µM (inactive)
Hs-578T
  GI50: 0.0735 µM (active)

## CC1C(C)(C)C23CC12C1(OCCO1)C3Br (configuration not stated)
SF-295
  GI50: > 100 µM (inactive)
SF-539
  GI50: > 100 µM (inactive)
EKVX
  GI50: > 100 µM (inactive)
SK-MEL-5
  GI50: > 100 µM (inactive)
PC-3
  GI50: > 100 µM (inactive)
OVCAR-5
  GI50: > 100 µM (inactive)
OVCAR-4
  GI50: > 100 µM (inactive)
SN12C
  GI50: > 100 µM (inactive)
NCI-H23
  GI50: > 100 µM (inactive)
RXF 393
  GI50: > 100 µM (inactive)
A498
  GI50: > 100 µM (inactive)
SW-620
  GI50: > 100 µM (inactive)
BT-549
  GI50: > 100 µM (inactive)
HCC 2998
  GI50: > 100 µM (inactive)
HCT-116
  GI50: > 100 µM (inactive)
UACC-257
  GI50: > 100 µM (inactive)
Hs-578T
  GI50: > 100 µM (inactive)

## CCCC(=O)C1=C(O)C(Cc2c(O)c(C)c(O)c(C(=O)CCC)c2O)=C(O)C(C)(C)C1=O
SF-295
  GI50: 16.9 µM (inactive)
EKVX
  GI50: > 50 µM (inactive)
SK-MEL-5
  GI50: > 50 µM (inactive)
PC-3
  GI50: 19.1 µM (inactive)
OVCAR-5
  GI50: 11.9 µM (inactive)
OVCAR-4
  GI50: 43.6 µM (inactive)
SK-MEL-2
  GI50: 22.4 µM (inactive)
SN12C
  GI50: > 50 µM (inactive)
NCI-H23
  GI50: 15.8 µM (inactive)
RXF 393
  GI50: 17 µM (inactive)
A498
  GI50: 46.8 µM (inactive)
SW-620
  GI50: 13.9 µM (inactive)
BT-549
  GI50: > 50 µM (inactive)
HCC 2998
  GI50: 10.9 µM (inactive)
HCT-116
  GI50: 12.6 µM (inactive)
UACC-257
  GI50: > 50 µM (inactive)
Hs-578T
  GI50: 40.6 µM (inactive)

## CCC(Nc1ncnc2nc[nH]c12)C(=O)O (configuration not stated)
SF-295
  GI50: > 100 µM (inactive)
EKVX
  GI50: > 100 µM (inactive)
SK-MEL-5
  GI50: > 100 µM (inactive)
PC-3
  GI50: > 100 µM (inactive)
OVCAR-5
  GI50: > 100 µM (inactive)
OVCAR-4
  GI50: > 100 µM (inactive)
SK-MEL-2
  GI50: > 100 µM (inactive)
SN12C
  GI50: > 100 µM (inactive)
NCI-H23
  GI50: > 100 µM (inactive)
RXF 393
  GI50: > 100 µM (inactive)
A498
  GI50: > 100 µM (inactive)
SW-620
  GI50: > 100 µM (inactive)
BT-549
  GI50: > 100 µM (inactive)
HCC 2998
  GI50: > 100 µM (inactive)
HCT-116
  GI50: > 100 µM (inactive)
UACC-257
  GI50: > 100 µM (inactive)
Hs-578T
  GI50: > 100 µM (inactive)

## C#CCOC(=O)c1ccccc1OC(C)=O
SF-295
  GI50: > 100 µM (inactive)
SF-539
  GI50: > 100 µM (inactive)
EKVX
  GI50: > 100 µM (inactive)
SK-MEL-5
  GI50: > 100 µM (inactive)
PC-3
  GI50: > 100 µM (inactive)
OVCAR-5
  GI50: > 100 µM (inactive)
OVCAR-4
  GI50: > 100 µM (inactive)
SK-MEL-2
  GI50: > 100 µM (inactive)
SN12C
  GI50: > 100 µM (inactive)
NCI-H23
  GI50: > 100 µM (inactive)
RXF 393
  GI50: > 100 µM (inactive)
A498
  GI50: > 100 µM (inactive)
SW-620
  GI50: > 100 µM (inactive)
BT-549
  GI50: > 100 µM (inactive)
HCT-116
  GI50: > 100 µM (inactive)
UACC-257
  GI50: > 100 µM (inactive)
Hs-578T
  GI50: > 100 µM (inactive)
